The record followed here is ChEMBL document CHEMBL1201862, “PubChem BioAssay data set” (2004).

Holding throughout (assay): NCI anticancer screen, dose series, 48 h
For experiment [1], the system named is 786-0.
The subject of experiment [2] is A498.
For experiment [3], the system named is A549.
The test system of experiment [4] is HCT-116.
Experiment [5] deals with HOP-62.
In experiment [6] the test system is HT-29.
For experiment [7], the system named is IGROV-1.
The test system of experiment [8] is KM-20L2.
Experiment [9] deals with KM12.
Experiment [10] relates to NCI-H460.
Experiment [11] concerns NCI-H522.
Experiment [12] concerns OVCAR-8.
In experiment [13] the test system is SF-539.
Experiment [14] has as its system SK-MEL-28.
Experiment [15] has as its system SR.
In experiment [16] the test system is U-251.
Experiment [17] has as its system UACC-257.
Experiment [18] deals with HCT-15.

The structures appear in SMILES notation.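 Interpolation was linear, between the two tested concentrations surrounding the appropriate level; five concentrations were tested over 48 hours in 96-well plates. The concentration for 50% growth inhibition is given as GI50.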 Active and inactive are the calls of the source. Cut-off read from the data, not from the text of the source: active = GI50 up to about 1.1 µM and inactive = higher. Some results are limits rather than exact numbers.

Take `CN1C(=O)C(Cl)(C(Cl)(Cl)S(=O)(=O)O)C(=O)c2ccccc21.c1ccncc1` (stereo not drawn): the GI50 is > 100 µM (inactive) in experiment [1]; > 100 µM (inactive) in experiment [2]; > 100 µM (inactive) in experiment [3]; > 100 µM (inactive) in [4]; > 100 µM (inactive) in experiment [5]; 25.7 µM (inactive) in experiment [6]. The GI50 in [7] was > 100 µM (inactive); in experiment [8] it was 19.5 µM (inactive); in [9], > 100 µM (inactive); in experiment [10], > 100 µM (inactive); in [11] it was 44.9 µM (inactive); in experiment [12], > 100 µM (inactive). For the same compound, the GI50 in [13], in experiment [14], in experiment [15], in [16] and in experiment [17] was > 100 µM (inactive) each time.
As to `c1ccc(-c2nnc3nn4c(-c5ccccc5)cnnc4c3c2-c2ccccc2)cc1`, the GI50 was 0.0794 µM (active) in [1]; > 100 µM (inactive) in experiment [2]; 50.8 µM (inactive) in [3]; 63.4 µM (inactive) in experiment [4]; > 100 µM in experiment [18]; 95.3 µM (inactive) in [6]. In addition, the GI50 in experiment [8] was 95.3 µM (inactive); in experiment [9] it was > 100 µM (inactive); in experiment [10] it was 75.7 µM (inactive); in [12], 76.4 µM (inactive); in experiment [13], 26.3 µM (inactive); in experiment [14], 64 µM (inactive). The GI50 in experiment [15] is > 100 µM (inactive); in experiment [16], 32.6 µM (inactive); in [17], 96.8 µM (inactive).
As for `COc1ccc(/C=N/N=C(\N)NO)cc1OC`, the GI50 in [1] was 31 µM (inactive); in experiment [3], 28.4 µM (inactive); in [4] it was 42.8 µM (inactive); in [18], 75.2 µM; in [5] it was 31.9 µM (inactive); in [6] it was 28.7 µM (inactive). Moreover, the GI50 in experiment [7] is 33.9 µM (inactive); in [8] it was 37.8 µM (inactive); in [9], 52.7 µM (inactive); in experiment [10], 33.7 µM (inactive); in experiment [11], 26.3 µM (inactive); in experiment [12], 38.4 µM (inactive). Moreover, the GI50 in [13] was 26.3 µM (inactive); in experiment [14] it was > 100 µM (inactive); in [15], 24.9 µM (inactive); in experiment [16] it was 38.1 µM (inactive); in experiment [17], 90.4 µM (inactive).
`C[C@H](OCc1ccccc1)C(=O)N1CCS(=O)(=O)N2CCC[C@H]2C1=O`: the GI50 in experiment [1] was > 100 µM (inactive); in experiment [2], > 100 µM (inactive); in experiment [3], > 100 µM (inactive); in experiment [4], > 100 µM (inactive); in experiment [18], > 100 µM; in experiment [5], > 100 µM (inactive). Besides, the GI50 in [6], in experiment [7], in experiment [8], in experiment [9], in experiment [10] and in experiment [11] was > 100 µM (inactive) each time. The GI50 in experiment [12], in [13], in experiment [14], in experiment [15], in experiment [16] and in experiment [17] was > 100 µM (inactive) throughout.
Turning to `Cc1cc(O)nc(NNC(C#N)c2ccccc2O)n1` (stereo not drawn), the GI50 was 19.8 µM (inactive) in experiment [1]; 16.8 µM (inactive) in [3]; 19.3 µM (inactive) in [4]; 11.9 µM in experiment [18]; 31.3 µM (inactive) in experiment [5]; 30.2 µM (inactive) in experiment [6]. Moreover, the GI50 is 21 µM (inactive) in experiment [7]; 13.1 µM (inactive) in experiment [8]; 35.6 µM (inactive) in [9]; 10.5 µM (inactive) in experiment [10]; 41.4 µM (inactive) in experiment [11]; 35.7 µM (inactive) in experiment [12]. The GI50 was 10.4 µM (inactive) in experiment [13]; 36.3 µM (inactive) in experiment [14]; 4.3 µM (inactive) in [15]; 15.2 µM (inactive) in experiment [16]; 39 µM (inactive) in experiment [17].
As for `CCN1CCC(O)(c2ccc(Cl)cc2)C(C(=O)c2ccc(Cl)cc2)C1` (stereo not drawn), the GI50 in experiment [1], in [2], in experiment [3], in experiment [4], in [6] and in [7] was > 100 µM (inactive) throughout. Further, the GI50 was > 100 µM (inactive) in experiment [8]; > 100 µM (inactive) in experiment [9]; > 100 µM (inactive) in experiment [10]; 20.4 µM (inactive) in experiment [11]; > 100 µM (inactive) in [12]; 26.2 µM (inactive) in [13]. For the same compound, the GI50 is > 100 µM (inactive) in [14], 36.6 µM (inactive) in experiment [15], > 100 µM (inactive) in experiment [16] and > 100 µM (inactive) in [17].
Regarding `COc1ccc(OC)c(CCc2ccccc2CC(=O)O)c1`, the GI50 in experiment [1] is > 100 µM (inactive); in experiment [2], > 100 µM (inactive); in experiment [3], > 100 µM (inactive); in [4], > 100 µM (inactive); in experiment [18] it was > 100 µM; in experiment [6], > 100 µM (inactive). For the same compound, the GI50 in [7], in [8], in [9], in experiment [10], in experiment [11] and in experiment [12] was > 100 µM (inactive) in each case. The GI50 in experiment [13], in experiment [14], in experiment [15], in experiment [16] and in [17] was > 100 µM (inactive) in each case.
As for `O=[N+]([O-])/C=C/c1ccc(Cl)cc1Cl`, the GI50 in experiment [1] is 15.6 µM (inactive); in experiment [3] it was 21 µM (inactive); in experiment [4], 3.44 µM (inactive); in [18], 15 µM; in experiment [5] it was 14.2 µM (inactive); in experiment [6] it was 5.77 µM (inactive). Further, the GI50 was 14.8 µM (inactive) in [7]; 18.7 µM (inactive) in experiment [8]; 14.7 µM (inactive) in [9]; 17.9 µM (inactive) in experiment [10]; 14.6 µM (inactive) in experiment [11]; 25.4 µM (inactive) in [12]. For the same compound, the GI50 is 17.1 µM (inactive) in experiment [13]; 14.9 µM (inactive) in experiment [14]; 11.4 µM (inactive) in [15]; 5.66 µM (inactive) in [16]; 13.4 µM (inactive) in experiment [17].
Consider `COC[C@@H](/N=C/N1CCc2cc(OC)c(OC)cc2C1)C(C)(C)C`, for which the GI50 is > 100 µM (inactive) in experiment [1]; > 100 µM (inactive) in experiment [3]; > 100 µM (inactive) in experiment [4]; > 100 µM in experiment [18]; > 100 µM (inactive) in [5]; > 100 µM (inactive) in experiment [6]. Further, the GI50 in experiment [7], in experiment [8], in experiment [9], in experiment [10], in experiment [11] and in [12] was > 100 µM (inactive) in each case. Moreover, the GI50 in [13], in experiment [14], in experiment [15], in [16] and in experiment [17] was > 100 µM (inactive) throughout.
Take `COc1ccc2nc3ccccc3c(NCCN(CCCl)CCCl)c2c1`: the GI50 in experiment [1] was 0.33 µM (active); in experiment [2] it was 2.49 µM (inactive); in experiment [3], 0.771 µM (active); in experiment [4], 0.272 µM (active); in [5], 0.555 µM (active); in experiment [6], 0.543 µM (active). The GI50 in experiment [7] was 1.3 µM (inactive); in experiment [8], 0.474 µM (active); in [9] it was 1.34 µM (inactive); in [11], 0.348 µM (active); in experiment [12], 0.649 µM (active); in experiment [13], 0.608 µM (active). Further, the GI50 was 2.36 µM (inactive) in [14], 0.0321 µM (active) in [15], 0.326 µM (active) in [16] and 1.3 µM (inactive) in [17].
Turning to `CC[C@H](C)C(=O)O[C@H]1C[C@@H](C)C=C2C=C[C@H](C)[C@H](CC[C@@H]3C[C@@H](O)CC(=O)O3)[C@H]21` [LOVASTATIN], the GI50 in experiment [1] was 9.77 µM (inactive); in [2] it was 1.21 µM (inactive); in experiment [3] it was 21.2 µM (inactive); in [18], 3.12 µM; in experiment [5], 13.1 µM (inactive); in [6], 11.6 µM (inactive). Further, the GI50 in experiment [7] was 5.96 µM (inactive); in experiment [8], > 30 µM (inactive); in [9], > 30 µM (inactive); in [10], 18 µM (inactive); in experiment [12] it was 7.83 µM (inactive); in [14] it was 25 µM (inactive). In addition, the results for the GI50 in [15] and in experiment [17] were 2.11 µM (inactive) and 20 µM (inactive), respectively.
Turning to `CCC12CCCN(Cc3ccccc3)C1c1c(n(C)c3ccccc13)C(C(=O)OC)C2` (stereo not drawn), the GI50 in experiment [1] is 206 µM (inactive); in experiment [3], > 239 µM (inactive); in experiment [4], 51.6 µM (inactive); in [18], 70.3 µM; in experiment [5] it was 129 µM (inactive); in [6], 73.1 µM (inactive). Moreover, the GI50 in experiment [7] is 146 µM (inactive); in experiment [8], 130 µM (inactive); in [9], 85.3 µM (inactive); in experiment [10] it was 117 µM (inactive); in experiment [11] it was 53.2 µM (inactive); in experiment [12] it was 169 µM (inactive). Moreover, the GI50 in [13] was 126 µM (inactive); in experiment [14], > 239 µM (inactive); in experiment [15], 72.6 µM (inactive); in experiment [16] it was 117 µM (inactive); in experiment [17], 66.4 µM (inactive).
